Article PMC11984407, “A natural small molecule isoginkgetin alleviates hypercholesterolemia and atherosclerosis by targeting ACLY” (Theranostics, 2025)

Tests used:
[1] = system: Syrian golden hamsters; experiment: High cholesterol diet-fed Syrian golden hamsters; type: in vivo, hamster
Experimental: Syrian golden hamsters were purchased from Vital River Laboratories (Beijing, China). Hamsters were fed a high cholesterol diet and received ISOGK (5 mg/kg/day) for 4 weeks. Before being sacrificed, liver and blood samples were collected at the end of the experiment. The animal study protocol was approved by the Ethics Committee of Hefei University of Technology (approval number HFUT20221031001) and conducted in accordance with the guidelines set forth in the "Guide for the Care and Use of Laboratory Animals," published by the National Institutes of Health (NIH).
Plasma levels of TC, TG, LDL-C, and high-density lipoprotein cholesterol (HDL-C) were determined following the manufacturer's instructions. Liver tissues (30-40 mg) were homogenized in 0.5 mL of cold PBS for hepatic TG and cholesterol measurement. A 0.4 mL homogenate was combined with 1.4 mL of a CHCl3/CH3OH mixture (2:1, v/v) and shaken overnight at room temperature. Following centrifugation at 2,500 × g for a period of 10 min, the organic phase was meticulously transferred and permitted to air-dry. The residual organic material was then reconstituted in 800 μL of ethanol containing 1% Triton X-100, whereby the ethanol served to solubilize the material.
Fast protein liquid chromatography (FPLC) was employed to analyze plasma lipoproteins using 200 μL of pooled plasma samples. The samples were initially filtered through 0.22-µm filters and subsequently loaded onto Tricorn high-performance Superose S-6 10/300GL columns (Amersham Biosciences). Elution was conducted with PBS at a constant flow rate of 0.25 mL/min. The eluted fractions (500 μL each) were subjected to analysis for TG and TC concentrations using the aforementioned commercial assay kits.

[2] = system: Srebf1c and Fasn mRNA; experiment: RT-qPCR of lipid synthesis genes after ACLY knockdown in AML12 and Huh7 cells; type: cell-based; settings: 5 µM, 50 µM PA, 12 h
Experimental: Total RNA was extracted from cultured cells or animal tissue using RNeasy kits (RN001-50Rxns, YiShan, Shanghai, China). Subsequently, cDNA was generated using a Takara Reverse Transcription Kit (RR037B, Takara, Kyoto, Japan). Subsequently, quantitative real-time polymerase chain reaction (RT-qPCR) assays were conducted using ChamQ SYBR qPCR Master Mix (Q311-02, Vazyme, Nanjing, China), following the reverse transcription. The Roche LC96 real-time PCR detection system was employed for the detection of results, with glyceraldehyde-3-phosphate dehydrogenase (GAPDH) serving as the loading control for the quantification of mRNA levels. The fold change relative to the respective controls was determined using the 2^(^-ΔΔCt) method. Primers were designed using the PrimerQuest software and subsequently synthesised by Sangon Biotech (Shanghai, China).

[3] = molecular target: T1, recombinant ACLY protein (Homo sapiens, UniProt P53396); experiment: ACLY activity assay in vitro (cell-free ADP-Glo assay); type: biochemical; settings: read-out: ACLY enzyme activity IC50
T1 sequence (P53396 1-1101): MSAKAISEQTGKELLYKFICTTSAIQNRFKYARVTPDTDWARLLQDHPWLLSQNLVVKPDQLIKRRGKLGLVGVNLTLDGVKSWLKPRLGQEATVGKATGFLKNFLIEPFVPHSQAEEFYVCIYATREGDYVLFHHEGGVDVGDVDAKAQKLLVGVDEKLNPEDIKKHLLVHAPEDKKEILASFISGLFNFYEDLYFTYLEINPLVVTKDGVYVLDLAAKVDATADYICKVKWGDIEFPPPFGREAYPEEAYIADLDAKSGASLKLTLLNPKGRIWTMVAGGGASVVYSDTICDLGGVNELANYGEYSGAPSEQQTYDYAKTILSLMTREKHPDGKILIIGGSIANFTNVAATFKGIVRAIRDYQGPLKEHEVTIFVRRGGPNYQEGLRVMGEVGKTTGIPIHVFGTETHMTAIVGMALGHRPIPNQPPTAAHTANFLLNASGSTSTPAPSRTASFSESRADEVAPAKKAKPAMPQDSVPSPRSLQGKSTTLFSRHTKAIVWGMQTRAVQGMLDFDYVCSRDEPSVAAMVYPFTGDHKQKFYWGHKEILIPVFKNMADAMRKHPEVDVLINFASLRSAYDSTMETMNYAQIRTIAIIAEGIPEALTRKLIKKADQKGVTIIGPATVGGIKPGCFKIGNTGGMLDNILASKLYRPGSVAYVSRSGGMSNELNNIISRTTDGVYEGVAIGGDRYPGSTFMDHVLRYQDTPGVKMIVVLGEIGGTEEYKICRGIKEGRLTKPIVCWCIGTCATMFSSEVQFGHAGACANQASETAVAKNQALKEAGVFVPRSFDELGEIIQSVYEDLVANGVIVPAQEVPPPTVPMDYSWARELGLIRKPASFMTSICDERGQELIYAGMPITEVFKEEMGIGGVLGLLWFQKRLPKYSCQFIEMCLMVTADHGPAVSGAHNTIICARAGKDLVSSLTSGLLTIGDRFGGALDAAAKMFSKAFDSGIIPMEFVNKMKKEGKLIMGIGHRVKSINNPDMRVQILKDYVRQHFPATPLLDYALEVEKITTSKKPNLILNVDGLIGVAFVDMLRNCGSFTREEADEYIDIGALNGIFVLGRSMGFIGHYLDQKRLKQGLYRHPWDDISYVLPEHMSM
Experimental: ACLY activity was assessed in a cell-free system using an ADP-Glo dependent assay, as previously described. Briefly, the reaction was conducted in a 384-well plate containing 2 µL of substrate (5 mmol/L ATP, 30 mmol/L citrate, 15 mmol/L CoA) in kinase buffer (40 mmol/L Tris base, 10 mmol/L MgCl2, 5 mmol/L DTT). The reaction was initiated by adding 20 nmol/L recombinant human ACLY protein and various concentrations of the compounds, followed by incubation for 30 min at 37 °C. During the reaction, ACLY converted ATP to ADP. ADP levels, which reflect ACLY activity, were quantified using the ADP-Glo assay kit (V9102, Promega, Madison, USA) in accordance with the manufacturer's instructions. The enzymatic activity curve was analyzed using the log (inhibitor) versus normalized response-variable slope function in GraphPad Prism.

[4] = hamsters, 5 mg/kg/day i.p., 4 weeks

COc1ccc(-c2cc(=O)c3c(O)cc(O)c(-c4cc(-c5cc(=O)c6c(O)cc(O)cc6o5)ccc4OC)c3o2)cc1 [ISOGK, Isoginkgetin]
decrease in hepatic TC [1, 4]: 27.53% | decrease in hepatic TG [1, 4]: 64.14% | reduction in serum LDL-C [1, 4]: 56.55% | reduction in serum TC [1, 4]: 36.12% | reduction in serum TG [1, 4]: 46.87% | lipid deposition in liver (Oil Red O) ([1]; hamsters, 4 weeks): significantly reduced lipid deposition | serum antioxidant indicators (MDA, SOD, ox-LDL) ([1]; hamsters, 4 weeks): remained unaltered | serum TC and TG distribution (FPLC) ([1]; hamsters, pooled plasma): significant decrease in serum TC and TG distribution | serum ALT and AST vs vehicle ([1]; high cholesterol diet-fed hamsters, 5 mg/kg/day i.p., 4 weeks): no significant difference | LDLR and ACLY protein levels in the liver ([1]; hyperlipidemic hamsters, 5 mg/kg/day, 4 weeks): no significant difference | mRNA expression of Srebf1c and Fasn following ACLY knockdown [2]: did not demonstrate a further reduction | IC50 [3]: 5.46 ± 1.11 µM
